Common to all, as to assay type: physicochemical
A short description of data set [1]: Study on stability (high temperature, high moisture, light; purity by HPLC and XRD). Conditions: for XRD: compared with the XRD pattern at Day 0. The procedure: The Crystal form A of the maleate of the compound of Formula (1) and the hydrochloride of the compound of Formula (1) were kept at 70° C. for 3 d, and the samples were taken at Day 1 and Day 3, respectively, and were tested for purity and XRD, which were compared with those of the sample at Day 0.
The Crystal form A of the maleate of the compound of Formula (1) was kept under conditions of high moisture (25° C., RH92.5%) for 5 d, or under condition of light (4500LX±500LX) for 10 d, and was tested for purity and XRD, which were compared with those of the sample at Day 0.
Purity measurement: measurement was performed in accordance with High Performance Liquid Chromatography in Appendix II V D in Pharmacopoeia of the People's Republic of China (2010) Volume II.
XRD test: the same as described in Example 1.

Data set [2] is described as follows: Study on solubility (HPLC). The procedure: measurement was performed in accordance with High Performance Liquid Chromatography in Appendix II V D in Pharmacopoeia of the People's Republic of China (2010) Volume II.
A short description of data set [3]: Study on hygroscopicity (pharmaceutical hygroscopicity test, General Rule 9103 ChP 2015). Here is the method:
measurement was performed in accordance with the Guidelines for pharmaceutical hygroscopicity test in General Rule 9103 of Pharmacopoeia of the People's Republic of China (2015) Volume IV.

Molecules are shown by their SMILES. Counter-ions that a name gives are not always drawn.

Usually solubility stands for the dissolved amount per volume that the medium holds. Lower therefore signals little dissolved substance. For the compound `COc1cc2ncnc(Nc3ccc(F)c(Cl)c3)c2cc1NC(=O)/C=C/CN1CC2(CCC2)C1` [Crystal form A of the maleate of the compound of Formula (1)] [(E)-N-(4-((3-chloro-4-fluorophenyl)amino)-7-methoxylquinazolin-6-yl)-4-(2-azaspiro[3.3]heptan-2-yl)-2-butenamide], the “purity (%)” value turned out to be 98.6% in data set [1] (25° C., RH92.5%, standing time 0 d); 98.4% in data set [1] (25° C., RH92.5%, standing time 5 d); 98.4% in data set [1] (70° C., standing time 0 d); 98.0% in data set [1] (70° C., standing time 1 d); 97.4% in data set [1] (70° C., standing time 3 d); 98.6% in data set [1] (light 4500LX ± 500LX, standing time 0 d). Further, the “purity (%)” value in data set [1] (light 4500LX ± 500LX, standing time 10 d) is on record as 98.4%. Besides, the XRD entry was “the same as” in data set [1] (70° C., 1 d); “the same as” in data set [1] (70° C., 3 d); “the same as” in data set [1] (light 4500LX ± 500LX, 10 d). Further, the change in purity entry in data set [1] (light (4500LX±500LX) 10 d, high moisture (25° C., RH92.5%) 5 d, or high temperature (70° C.) 3 d) is given as “No apparent change in purity”. Moreover, the solubility in data set [2] (H2O) worked out at 4.4115 mg/mL; in data set [2] (pH of solution 1.0), 20.2778 mg/mL; in data set [2] (pH of solution 4.5), 9.7484 mg/mL; in data set [2] (pH of solution 6.5) it was 0.0891 mg/mL; in data set [2] (pH of solution 7.4), 0.0689 mg/mL. Moreover, the “solubility compared with the hydrochloride” value in data set [2] (under various pH conditions) was “higher solubility”. Further, the “Hygroscopic weight gain(%)” value in data set [3] is 0.07%. The Hygroscopicity result in data set [3] is listed as “No or almost no”. Further, the “hygroscopicity compared with the hydrochloride” value in data set [3] is “lower hygroscopicity”.
With `COc1cc2ncnc(Nc3ccc(F)c(Cl)c3)c2cc1NC(=O)/C=C/CN1CC2(CCC2)C1` [Hydrochloride of the compound of Formula (1)] [(E)-N-(4-((3-chloro-4-fluorophenyl)amino)-7-methoxylquinazolin-6-yl)-4-(2-azaspiro[3.3]heptan-2-yl)-2-butenamide], the “purity (%)” value in data set [1] (70° C., standing time 0 d) was 98.4%; in data set [1] (70° C., standing time 1 d) it was 92.5%; in data set [1] (70° C., standing time 3 d), 89.0%. In data set [1] (high temperature (70° C.) for 3 d), this compound showed a decrease in purity of 9.4%. The solubility in data set [2] (H2O) is 2.2006 mg/mL; in data set [2] (pH of solution 1.0) it was 3.2558 mg/mL; in data set [2] (pH of solution 4.5), 1.883 mg/mL; in data set [2] (pH of solution 6.5), 0.0176 mg/mL; in data set [2] (pH of solution 7.4), 0.0112 mg/mL. The “Hygroscopic weight gain(%)” value in data set [3] was found to be 7.8%.
